Converted amounts (≈) assume the structure as drawn.
tested on: Ethanol-induced ulcer; experiment: Ethanol-induced ulcer; type: in vivo, Donryu masculine rats; details: rats; 100% ethanol 5 ml/kg orally; compound in 0.5% CMC orally at 5 ml/kg; one hour
Description: Five (5) ml/kg of 100% ethanol was orally administered to Donryu masculine rats fasted for 48 hours and dehydrated for 24 hours. Then, the compounds under test, suspended in 0.5% CMC, were orally administered to the rats at a dose of 5 ml/kg body weight. One hour later, the rats were put down in a similar manner as mentioned above to remove and treat the stomach.

Structure (SMILES) | depression of erosion
[O-][S+](CCN1CCOCC1)c1nc2cc(Cl)ccc2s1 (stereo not shown) [Example 32, 5-chloro-2-[(2-morpholinoethyl)sulfinyl]benzothiazole] | 93.0%

tested on: Helicobacter pylori HI-0001; experiment: Antimicrobial activity, agar plate dilution method (strain HI-0001); type: cell-based; details: HI0001, 48 h, two days at 37° C., read-out: MINIMUM GROWTH INHIBITION CONCENTRATION
From the text: (§1) Helicobacter pylori is Gram negative microaerophile which has been recently isolated from human tunica mucosa ventriculi and seems to serve for pathopoiesis and recurrence of ulcer in alimentary canal. The compounds of formula (I) show an antimicrobial activity to inhibit the growth of Helicobacter pylori.
(§2) The media used were that of Muller-Hinton liquid medium (BBL) containing 7% horse serum, and of Heart-Infusin agar medium (Difco) containing 5% horse defibrinized blood. The culture was incubated for two days at 37° C. using Gaspack (BBL) without a catalyst.

Structure (SMILES) | MIC
CC1(C)S[C@@H]2[C@H](NC(=O)[C@H](N)c3ccccc3)C(=O)N2[C@H]1C(=O)O [Aminobenzylpenicillin, reference compound] | 0.025 µg/mL (≈ 0.0715 µM)
CCOCC[S+]([O-])c1nc(-c2ccsc2)cs1 (stereo not shown) [Example 14, 2-[(2-ethoxyethyl)sulfinyl]-4-(3-thienyl)thiazole] | 50 µg/mL (≈ 174 µM)
O=C(NCCCl)NCCSc1nc2cc(Cl)ccc2s1 [Example 23, N-(5-chlorobenzothiazol-2-yl)thioethyl--N'-(2-chloroethyl)urea] | 12.5 µg/mL (≈ 35.7 µM)
CCNC(=S)NCCSc1nc2cc(Cl)ccc2s1 [Example 25, N-(5-chlorobenzothiazol-2-yl)thioethyl--N'-ethylthiourea] | 0.025 µg/mL (≈ 0.0753 µM)
CCN=C(NC#N)NCCSc1nc2cc(Cl)ccc2s1 [Example 27, N-(5-chlorobenzothiazol-2-yl)thioethyl--N'-cyano--N"-ethylguanidine] | 12.5 µg/mL (≈ 36.8 µM)
[O-][S+](CCN1CCOCC1)c1nc2cc(Cl)ccc2s1 (stereo not shown) [Example 32, 5-chloro-2-[(2-morpholinoethyl)sulfinyl]benzothiazole] | 1.56 µg/mL (≈ 4.71 µM)
[O-][S+](CCN1CCOCC1)c1nc2cccc(Cl)c2s1 (stereo not shown) [Example 35, 7-chloro-2-[(2-morpholinoethyl)sulfinyl]benzothiazole] | 3.13 µg/mL (≈ 9.46 µM)
[O-][S+](CCN1CCOCC1)c1nc2ccc(Cl)cc2s1 (stereo not shown) [Example 37, 6-chloro-2-[(2-morpholinoethyl)sulfinyl]benzothiazole] | 3.13 µg/mL (≈ 9.46 µM)
CN1CCCC1CC[S+]([O-])c1nc2cc(Cl)ccc2s1 (stereo not shown) [Example 47, 5-chloro-2-{[2-(N-methylpyrrolidin-2-Y1)ethyl]sulfinyl}benzothiazole] | 0.39 µg/mL (≈ 1.19 µM)
CCOCC[S+]([O-])c1nc2ccc(Cl)cc2s1 (stereo not shown) [Example 63, 6-chloro-2-[(2-ethoxyethyl)sulfinyl]benzothiazole] | 3.13 µg/mL (≈ 10.8 µM)
CCOCC[S+]([O-])c1nc2cc([N+](=O)[O-])ccc2s1 (stereo not shown) [Example 78, 5-nitro-2-[(2-ethoxyethyl)sulfinyl]benzothiazole] | 6.25 µg/mL (≈ 20.8 µM)
CC1COc2c(N3CCN(C)CC3)c(F)cc3c(=O)c(C(=O)O)cn1c23 (stereo not shown) [Ofloxacin, reference compound] | 0.78 µg/mL (≈ 2.16 µM)

tested on: Water-immersion induced stress ulcer; experiment: Water-immersion induced stress ulcer; type: in vivo, Wister male rats; details: Rattus norvegicus; rats; single dose 30 mg/kg in 0.5% CMC one hour prior to stressing (water immersion, 6 h)
Description: Wister male rats (11-week age) fasted for 18 hours were placed in a restraint cage, which was in turn immersed to a depth of the pectoral region in water at 20 to 22° C. to leave the rats under stress for six hours. Then, the rats were drawn up from the water and put down by vertebral dislocation. Afterwards, the stomach was removed, infused with 5 ml of a 5% aqueous solution of formalin and was wholly immersed in the same solution for 30 minutes for fixation. The fixed sample was dissected along the curvature ventriculi major, and the ulcer regions were measured along their major length (in mm) by means of slide calipers. The total sum of the measurements per rat is a value of ulcer index.
The compounds under test shown in TABLE 3, suspended in 0.5% carboxymethylcellulose (CMC), were administered to the rats at a single dose of 30 mg/kg body weight of the compound one hour prior to the stressing. To a control group, only 0.5% CMC was administered. The antiulcer activity was calculated according to the following equation: [formula]

Structure (SMILES) | inhibition in vivo at 30 mg/kg
CCOCC[S+]([O-])c1nc(-c2cccnc2)cs1 (stereo not shown) [Example 2, 2-[(2-ethoxyethyl)sulfinyl]-4-(3-pyridyl)thiazole] | 72.5%
CC(C)N(CC[S+]([O-])c1nc(-c2cccnc2)cs1)C(C)C (stereo not shown) [Example 8] | 70.5%
CCOCC[S+]([O-])c1ncc(-c2ccccc2)s1 (stereo not shown) [Example 12, 2-[(2-ethoxyethyl)sulfinyl]-5-phenylthiazole] | 52.5%
CCOCC[S+]([O-])c1nc(-c2ccsc2)cs1 (stereo not shown) [Example 14, 2-[(2-ethoxyethyl)sulfinyl]-4-(3-thienyl)thiazole] | 62.7%
CCNC(=O)NCC[S+]([O-])c1nc2cc(Cl)ccc2s1 (stereo not shown) [Example 22, N-(5-chlorobenzothiazol-2-yl)sulfinylethyl--N'-ethylurea] | 63.1%
O=C(NCCCl)NCC[S+]([O-])c1nc2cc(Cl)ccc2s1 (stereo not shown) [Example 24, N-(5-chlorobenzothiazol-2-y1)sulfinylethyl--N'-(2-chloroethyl)urea] | 70.1%
CCNC(=S)NCCSc1nc2cc(Cl)ccc2s1 [Example 25, N-(5-chlorobenzothiazol-2-yl)thioethyl--N'-ethylthiourea] | 64.2%
CCN=C(NC#N)NCC[S+]([O-])c1nc2cc(Cl)ccc2s1 (stereo not shown) [Example 28, N-(5-chlorobenzothiazol-2-yl)sulfinylethyl--N'-cyano--N"-ethylguanidine] | 57%
[O-][S+](CCN1CCOCC1)c1nc2cc(Cl)ccc2s1 (stereo not shown) [Example 32, 5-chloro-2-[(2-morpholinoethyl)sulfinyl]benzothiazole] | 83.1%
[O-][S+](CCN1CCOCC1)c1nc2cccc(Cl)c2s1 (stereo not shown) [Example 35, 7-chloro-2-[(2-morpholinoethyl)sulfinyl]benzothiazole] | 72.1%
[O-][S+](CCN1CCOCC1)c1nc2ccc(Cl)cc2s1 (stereo not shown) [Example 37, 6-chloro-2-[(2-morpholinoethyl)sulfinyl]benzothiazole] | 78%
[O-][S+](CCN1CCOCC1)c1nc2ccc(Cl)cc2[nH]1 (stereo not shown) [Example 49, 5-chloro-2-[(2-morpholinoethyl)sulfinyl]benzimidazole] | 63.6%
CCOCC[S+]([O-])c1nc2cccc(Cl)c2s1 (stereo not shown) [Example 61, 7-chloro-2-[(2-ethoxyethyl)sulfinyl]benzothiazole] | 61.8%
CCOCC[S+]([O-])c1nc2ccc(Cl)cc2s1 (stereo not shown) [Example 63, 6-chloro-2-[(2-ethoxyethyl)sulfinyl]benzothiazole] | 76.5%
CCOCC[S+]([O-])c1nc2ccc(OC)cc2[nH]1 (stereo not shown) [Example 72, 5-methoxy-2-[(2-ethoxyethyl)sulfinyl]benzimidazole] | 65.6%
CCOCC[S+]([O-])c1nc2cc(C(F)(F)F)ccc2s1 (stereo not shown) [Example 76, 5-trifluoromethyl-2-[(2-ethoxyethyl)sulfinyl]benzothiazole] | 61.3%
CCOCC[S+]([O-])c1nc2cc([N+](=O)[O-])ccc2s1 (stereo not shown) [Example 78, 5-nitro-2-[(2-ethoxyethyl)sulfinyl]benzothiazole] | 60.7%
COc1ccc2[nH]c([S+]([O-])Cc3ncc(C)c(OC)c3C)nc2c1 (stereo not shown) [Omeprazole, reference compound] | 90%

same assay, conditions: rats; single dose 30 mg/kg in 0.5% CMC one hour prior to stressing (water immersion, 6 h)

Structure (SMILES) | Inhibition (%)
[O-][S+](CCOCCCl)c1nc2cc(Cl)ccc2s1 (stereo not shown) [Example 67, 5-chloro-2-{[2-(2-chloroethoxy)ethyl]sulfinyl}benzothiazole] | 53.3%

tested on: not listed separately; experiment: Acute toxicity; type: in vivo; details: mice, three per group; intraperitoneal dose of 100 mgkg

Structure (SMILES) | Acute toxicity (deaths)
Clc1ccc2sc(SCCN3CCOCC3)nc2c1 [Example 31, 5-chloro-2-[(2-morpholinoethyl)thio]benzothiazole] | none of the animals were sacrificed

same assay, conditions: mice, three per group; peroral dose of 300 mgkg

Structure (SMILES) | Acute toxicity (deaths)
Clc1ccc2sc(SCCN3CCOCC3)nc2c1 [Example 31, 5-chloro-2-[(2-morpholinoethyl)thio]benzothiazole] | none of the animals were sacrificed

tested on: Helicobacter pylori HI-0015; experiment: Antimicrobial activity, agar plate dilution method (strain HI-0015); type: cell-based; details: HI0015, 48 h, two days at 37° C., read-out: MINIMUM GROWTH INHIBITION CONCENTRATION
From the text: as §1, §2

Structure (SMILES) | MIC
CC1(C)S[C@@H]2[C@H](NC(=O)[C@H](N)c3ccccc3)C(=O)N2[C@H]1C(=O)O [Aminobenzylpenicillin, reference compound] | 0.2 µg/mL (≈ 0.572 µM)
CCOCC[S+]([O-])c1nc(-c2ccsc2)cs1 (stereo not shown) [Example 14, 2-[(2-ethoxyethyl)sulfinyl]-4-(3-thienyl)thiazole] | 100 µg/mL (≈ 348 µM)
O=C(NCCCl)NCCSc1nc2cc(Cl)ccc2s1 [Example 23, N-(5-chlorobenzothiazol-2-yl)thioethyl--N'-(2-chloroethyl)urea] | 12.5 µg/mL (≈ 35.7 µM)
CCNC(=S)NCCSc1nc2cc(Cl)ccc2s1 [Example 25, N-(5-chlorobenzothiazol-2-yl)thioethyl--N'-ethylthiourea] | 0.025 µg/mL (≈ 0.0753 µM)
CCN=C(NC#N)NCCSc1nc2cc(Cl)ccc2s1 [Example 27, N-(5-chlorobenzothiazol-2-yl)thioethyl--N'-cyano--N"-ethylguanidine] | 12.5 µg/mL (≈ 36.8 µM)
[O-][S+](CCN1CCOCC1)c1nc2cc(Cl)ccc2s1 (stereo not shown) [Example 32, 5-chloro-2-[(2-morpholinoethyl)sulfinyl]benzothiazole] | 3.13 µg/mL (≈ 9.46 µM)
[O-][S+](CCN1CCOCC1)c1nc2cccc(Cl)c2s1 (stereo not shown) [Example 35, 7-chloro-2-[(2-morpholinoethyl)sulfinyl]benzothiazole] | 6.25 µg/mL (≈ 18.9 µM)
[O-][S+](CCN1CCOCC1)c1nc2ccc(Cl)cc2s1 (stereo not shown) [Example 37, 6-chloro-2-[(2-morpholinoethyl)sulfinyl]benzothiazole] | 6.25 µg/mL (≈ 18.9 µM)
CN1CCCC1CC[S+]([O-])c1nc2cc(Cl)ccc2s1 (stereo not shown) [Example 47, 5-chloro-2-{[2-(N-methylpyrrolidin-2-Y1)ethyl]sulfinyl}benzothiazole] | 3.13 µg/mL (≈ 9.52 µM)
CCOCC[S+]([O-])c1nc2ccc(Cl)cc2s1 (stereo not shown) [Example 63, 6-chloro-2-[(2-ethoxyethyl)sulfinyl]benzothiazole] | 6.25 µg/mL (≈ 21.6 µM)
CCOCC[S+]([O-])c1nc2cc([N+](=O)[O-])ccc2s1 (stereo not shown) [Example 78, 5-nitro-2-[(2-ethoxyethyl)sulfinyl]benzothiazole] | 6.25 µg/mL (≈ 20.8 µM)
CC1COc2c(N3CCN(C)CC3)c(F)cc3c(=O)c(C(=O)O)cn1c23 (stereo not shown) [Ofloxacin, reference compound] | 0.78 µg/mL (≈ 2.16 µM)

Source: US5171746A, “Thiazole and imidazole derivatives and antiulcer composition containing same” (priority 1990, dated 1992)
